From ChEMBL document CHEMBL4507257, “Data for DCP probe ABT-100” (2021)

How the values were obtained:
[1] = molecular target: Serine/threonine-protein kinase 32C (Homo sapiens) (UniProt Q86UX6); details: Compound concentration 1000.0 nM
[2] = molecular target: Mitogen-activated protein kinase 9 (Homo sapiens) (UniProt P45984); details: Compound concentration 1000.0 nM
[3] = molecular target: Insulin receptor (Homo sapiens) (UniProt P06213); details: Compound concentration 1000.0 nM
[4] = molecular target: STE20/SPS1-related proline-alanine-rich protein kinase (Homo sapiens) (UniProt Q9UEW8); details: Compound concentration 1000.0 nM
[5] = molecular target: Serine/threonine-protein kinase BRSK1 (Homo sapiens) (UniProt Q8TDC3); details: Compound concentration 1000.0 nM
[6] = molecular target: RAC-alpha serine/threonine-protein kinase (Homo sapiens) (UniProt P31749); details: Compound concentration 1000.0 nM
[7] = molecular target: Mitogen-activated protein kinase 14 (Homo sapiens) (UniProt Q16539); details: Compound concentration 1000.0 nM
Mitogen-activated protein kinase 14 (Homo sapiens), sequence (Q16539 whole entry): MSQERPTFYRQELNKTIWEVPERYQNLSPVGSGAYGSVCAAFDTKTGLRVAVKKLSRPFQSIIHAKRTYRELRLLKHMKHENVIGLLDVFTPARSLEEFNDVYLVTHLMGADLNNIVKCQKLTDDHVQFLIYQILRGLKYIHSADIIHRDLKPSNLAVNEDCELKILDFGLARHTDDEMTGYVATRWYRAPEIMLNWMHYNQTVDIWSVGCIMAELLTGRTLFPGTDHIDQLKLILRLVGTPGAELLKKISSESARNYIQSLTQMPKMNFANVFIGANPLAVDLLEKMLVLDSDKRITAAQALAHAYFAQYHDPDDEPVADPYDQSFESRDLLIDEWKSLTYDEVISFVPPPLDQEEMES

[8] = system: Tyrosine-protein kinase ABL1 (Homo sapiens), P00519 [T315I]; details: Compound concentration 1000.0 nM
[9] = system: Receptor-type tyrosine-protein kinase FLT3 (Homo sapiens), P36888 [UNDEFINED MUTATION]; details: Compound concentration 1000.0 nM
[10] = molecular target: Mitogen-activated protein kinase kinase kinase 10 (Homo sapiens) (UniProt Q02779); details: Compound concentration 1000.0 nM
[11] = molecular target: Homeodomain-interacting protein kinase 2 (Homo sapiens, UniProt Q9H2X6); details: Compound concentration 1000.0 nM
Homeodomain-interacting protein kinase 2, sequence (Q9H2X6 whole entry, looked up, canonical isoform): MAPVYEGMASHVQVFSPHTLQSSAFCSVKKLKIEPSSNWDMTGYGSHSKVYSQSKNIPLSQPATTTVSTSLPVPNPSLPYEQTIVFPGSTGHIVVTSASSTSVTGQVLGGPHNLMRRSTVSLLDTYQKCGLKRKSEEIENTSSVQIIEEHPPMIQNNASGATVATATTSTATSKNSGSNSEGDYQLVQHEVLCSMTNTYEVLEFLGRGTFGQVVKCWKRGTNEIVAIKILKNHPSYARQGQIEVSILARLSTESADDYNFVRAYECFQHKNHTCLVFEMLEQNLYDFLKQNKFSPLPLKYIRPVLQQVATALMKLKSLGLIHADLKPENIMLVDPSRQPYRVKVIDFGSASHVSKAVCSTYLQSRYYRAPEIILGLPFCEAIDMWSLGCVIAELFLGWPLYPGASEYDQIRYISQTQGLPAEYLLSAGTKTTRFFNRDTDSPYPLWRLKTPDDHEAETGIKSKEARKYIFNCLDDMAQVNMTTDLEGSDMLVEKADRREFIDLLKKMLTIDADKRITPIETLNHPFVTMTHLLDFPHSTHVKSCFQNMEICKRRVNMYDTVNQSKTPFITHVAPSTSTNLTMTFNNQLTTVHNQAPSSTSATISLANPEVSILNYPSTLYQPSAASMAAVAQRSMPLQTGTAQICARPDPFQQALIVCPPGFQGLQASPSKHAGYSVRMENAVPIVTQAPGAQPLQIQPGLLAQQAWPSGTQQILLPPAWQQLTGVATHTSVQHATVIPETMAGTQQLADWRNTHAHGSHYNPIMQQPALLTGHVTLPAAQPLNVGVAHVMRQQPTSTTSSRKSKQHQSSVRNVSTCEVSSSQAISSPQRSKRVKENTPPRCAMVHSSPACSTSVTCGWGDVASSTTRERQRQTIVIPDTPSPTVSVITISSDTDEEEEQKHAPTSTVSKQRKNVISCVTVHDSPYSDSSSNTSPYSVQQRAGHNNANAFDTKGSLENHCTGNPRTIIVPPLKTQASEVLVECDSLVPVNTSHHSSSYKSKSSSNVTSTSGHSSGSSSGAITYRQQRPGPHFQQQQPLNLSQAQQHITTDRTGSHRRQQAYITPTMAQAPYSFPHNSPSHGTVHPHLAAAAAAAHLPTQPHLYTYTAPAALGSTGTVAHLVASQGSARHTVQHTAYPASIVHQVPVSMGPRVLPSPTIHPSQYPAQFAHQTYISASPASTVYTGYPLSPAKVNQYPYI

[12] = system: Phosphatidylinositol 4,5-bisphosphate 3-kinase catalytic subunit alpha isoform (Homo sapiens), P42336 [E542K]; details: Compound concentration 1000.0 nM
[13] = molecular target: Serine/threonine-protein kinase mTOR (Homo sapiens) (UniProt P42345); details: Compound concentration 1000.0 nM
[14] = molecular target: Mitogen-activated protein kinase kinase kinase 1 (Homo sapiens) (UniProt Q13233); details: Compound concentration 1000.0 nM
[15] = molecular target: 5'-AMP-activated protein kinase catalytic subunit alpha-2 (Homo sapiens) (UniProt P54646); details: Compound concentration 1000.0 nM
[16] = molecular target: Mitogen-activated protein kinase 1 (Homo sapiens) (UniProt P28482); details: Compound concentration 1000.0 nM
Mitogen-activated protein kinase 1 (Homo sapiens), sequence (P28482 whole entry): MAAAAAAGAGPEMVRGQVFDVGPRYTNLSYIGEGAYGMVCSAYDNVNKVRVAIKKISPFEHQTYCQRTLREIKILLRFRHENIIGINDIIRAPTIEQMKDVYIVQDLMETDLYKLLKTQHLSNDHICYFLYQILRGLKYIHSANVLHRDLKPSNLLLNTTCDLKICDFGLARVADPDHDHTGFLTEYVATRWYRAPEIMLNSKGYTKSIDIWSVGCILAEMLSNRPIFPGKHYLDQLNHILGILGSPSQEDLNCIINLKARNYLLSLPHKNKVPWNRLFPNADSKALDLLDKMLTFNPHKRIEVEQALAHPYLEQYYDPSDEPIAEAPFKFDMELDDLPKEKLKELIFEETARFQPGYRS

[17] = molecular target: BDNF/NT-3 growth factors receptor (Homo sapiens) (UniProt Q16620); details: Compound concentration 1000.0 nM
[18] = molecular target: Inhibitor of nuclear factor kappa-B kinase subunit epsilon (Homo sapiens) (UniProt Q14164); details: Compound concentration 1000.0 nM
Inhibitor of nuclear factor kappa-B kinase subunit epsilon (Homo sapiens), sequence (Q14164 whole entry): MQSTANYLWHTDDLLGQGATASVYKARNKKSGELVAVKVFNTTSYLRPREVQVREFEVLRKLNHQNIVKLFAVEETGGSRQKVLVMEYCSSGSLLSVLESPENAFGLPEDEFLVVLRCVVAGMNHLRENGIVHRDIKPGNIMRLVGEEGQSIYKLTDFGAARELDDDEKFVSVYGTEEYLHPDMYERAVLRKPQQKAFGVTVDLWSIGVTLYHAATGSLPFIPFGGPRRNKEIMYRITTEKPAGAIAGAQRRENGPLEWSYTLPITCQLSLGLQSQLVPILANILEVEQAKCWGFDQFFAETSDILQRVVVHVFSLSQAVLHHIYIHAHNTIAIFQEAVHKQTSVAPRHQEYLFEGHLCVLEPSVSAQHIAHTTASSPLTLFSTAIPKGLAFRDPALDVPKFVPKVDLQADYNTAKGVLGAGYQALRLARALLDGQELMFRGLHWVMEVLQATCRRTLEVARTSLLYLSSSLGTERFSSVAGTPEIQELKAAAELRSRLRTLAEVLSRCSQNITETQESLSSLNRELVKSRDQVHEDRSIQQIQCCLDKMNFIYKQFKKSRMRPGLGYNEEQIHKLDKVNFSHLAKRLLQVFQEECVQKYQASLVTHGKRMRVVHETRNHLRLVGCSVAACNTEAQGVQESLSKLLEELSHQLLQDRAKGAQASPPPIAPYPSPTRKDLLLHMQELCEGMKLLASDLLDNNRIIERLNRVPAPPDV

[19] = molecular target: Dual specificity tyrosine-phosphorylation-regulated kinase 1B (Homo sapiens) (UniProt Q9Y463); details: Compound concentration 1000.0 nM
[20] = molecular target: 5-hydroxytryptamine receptor 2A (Homo sapiens) (UniProt P28223); details: Compound concentration 10.0 uM
[21] = molecular target: Myosin-IIIa (Homo sapiens) (UniProt Q8NEV4); details: Compound concentration 1000.0 nM
[22] = molecular target: T1, 5-hydroxytryptamine receptor 1A (Homo sapiens) (UniProt P08908); details: Compound concentration 10.0 uM
T1 sequence (whole entry): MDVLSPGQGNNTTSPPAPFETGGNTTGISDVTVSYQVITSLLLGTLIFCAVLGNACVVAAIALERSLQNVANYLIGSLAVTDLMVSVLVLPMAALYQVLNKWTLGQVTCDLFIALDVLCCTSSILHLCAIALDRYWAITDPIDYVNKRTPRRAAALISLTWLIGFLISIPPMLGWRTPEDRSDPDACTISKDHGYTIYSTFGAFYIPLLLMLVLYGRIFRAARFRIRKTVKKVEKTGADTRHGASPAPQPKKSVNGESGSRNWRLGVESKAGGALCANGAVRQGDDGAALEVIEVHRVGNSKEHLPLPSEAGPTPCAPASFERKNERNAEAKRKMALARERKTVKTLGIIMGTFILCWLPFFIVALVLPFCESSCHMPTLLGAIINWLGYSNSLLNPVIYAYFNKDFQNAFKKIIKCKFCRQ

[23] = molecular target: Casein kinase I isoform alpha (Homo sapiens) (UniProt P48729); details: Compound concentration 1000.0 nM
[24] = molecular target: cAMP-dependent protein kinase catalytic subunit PRKX (Homo sapiens) (UniProt P51817); details: Compound concentration 1000.0 nM
[25] = system: ALK tyrosine kinase receptor (Homo sapiens), Q9UM73 [C1156Y]; details: Compound concentration 1000.0 nM
[26] = molecular target: Proto-oncogene tyrosine-protein kinase ROS (Homo sapiens) (UniProt P08922); details: Compound concentration 1000.0 nM
[27] = molecular target: Mitogen-activated protein kinase kinase kinase 19 (Homo sapiens) (UniProt Q56UN5); details: Compound concentration 1000.0 nM
Mitogen-activated protein kinase kinase kinase 19 (Homo sapiens), sequence (Q56UN5 whole entry): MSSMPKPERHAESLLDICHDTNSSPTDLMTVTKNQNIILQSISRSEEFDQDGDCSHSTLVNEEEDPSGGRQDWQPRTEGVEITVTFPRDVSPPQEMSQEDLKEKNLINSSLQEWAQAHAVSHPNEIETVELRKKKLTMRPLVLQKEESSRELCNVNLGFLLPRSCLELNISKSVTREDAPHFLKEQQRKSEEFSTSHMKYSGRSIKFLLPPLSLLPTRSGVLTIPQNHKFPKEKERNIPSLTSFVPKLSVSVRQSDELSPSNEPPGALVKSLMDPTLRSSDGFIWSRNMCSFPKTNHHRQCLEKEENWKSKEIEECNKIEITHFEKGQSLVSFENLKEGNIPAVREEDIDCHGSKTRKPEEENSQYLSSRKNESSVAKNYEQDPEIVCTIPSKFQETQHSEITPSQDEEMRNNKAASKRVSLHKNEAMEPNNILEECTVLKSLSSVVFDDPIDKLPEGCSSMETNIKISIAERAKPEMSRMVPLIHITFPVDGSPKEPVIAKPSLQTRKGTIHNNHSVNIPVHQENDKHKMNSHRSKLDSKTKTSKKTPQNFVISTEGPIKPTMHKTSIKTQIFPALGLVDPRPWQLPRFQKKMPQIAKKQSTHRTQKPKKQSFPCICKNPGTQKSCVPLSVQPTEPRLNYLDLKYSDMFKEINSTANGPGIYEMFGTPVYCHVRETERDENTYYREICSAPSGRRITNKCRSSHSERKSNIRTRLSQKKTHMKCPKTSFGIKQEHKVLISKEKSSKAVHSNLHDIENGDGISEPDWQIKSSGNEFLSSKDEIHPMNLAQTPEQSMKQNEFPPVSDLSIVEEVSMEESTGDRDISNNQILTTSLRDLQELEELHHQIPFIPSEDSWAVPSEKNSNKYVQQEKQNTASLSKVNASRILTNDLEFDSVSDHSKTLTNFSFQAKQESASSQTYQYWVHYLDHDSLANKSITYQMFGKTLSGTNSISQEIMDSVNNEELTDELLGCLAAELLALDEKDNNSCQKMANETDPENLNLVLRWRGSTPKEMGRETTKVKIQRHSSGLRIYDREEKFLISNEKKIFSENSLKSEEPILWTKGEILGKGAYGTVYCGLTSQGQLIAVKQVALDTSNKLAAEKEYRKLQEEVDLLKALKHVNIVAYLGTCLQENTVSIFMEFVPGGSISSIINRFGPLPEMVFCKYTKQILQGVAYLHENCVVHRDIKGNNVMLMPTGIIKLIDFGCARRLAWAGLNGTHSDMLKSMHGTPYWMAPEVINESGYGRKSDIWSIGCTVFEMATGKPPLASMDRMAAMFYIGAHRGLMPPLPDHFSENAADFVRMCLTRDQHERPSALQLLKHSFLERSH

[28] = molecular target: Dual specificity mitogen-activated protein kinase kinase 1 (Homo sapiens) (UniProt Q02750); details: Compound concentration 1000.0 nM
[29] = molecular target: Mitogen-activated protein kinase 4 (Homo sapiens) (UniProt P31152); details: Compound concentration 1000.0 nM
[30] = molecular target: Aurora kinase A (Homo sapiens) (UniProt O14965); details: Compound concentration 1000.0 nM
[31] = molecular target: GABA-A receptor; anion channel (Rattus norvegicus) (UniProt O09028+P15431+P18506+P18508+P19969+P20236+P23574+P23576+P28471+P28473+P30191+P62813+P63079+P63138+Q91ZM7+Q9ES14); details: Compound concentration 10.0 uM
[32] = molecular target: Sigma non-opioid intracellular receptor 1 (Homo sapiens, UniProt Q99720); details: Compound concentration 10.0 uM
[33] = system: Receptor-type tyrosine-protein kinase FLT3 (Homo sapiens), P36888 [D835Y]; details: Compound concentration 1000.0 nM
[34] = molecular target: Receptor-type tyrosine-protein kinase FLT3 (Homo sapiens) (UniProt P36888); details: Compound concentration 1000.0 nM
[35] = molecular target: Serine/threonine-protein kinase TAO1 (Homo sapiens) (UniProt Q7L7X3); details: Compound concentration 1000.0 nM
[36] = molecular target: Myosin light chain kinase, smooth muscle (Homo sapiens) (UniProt Q15746); details: Compound concentration 1000.0 nM
[37] = molecular target: Atypical kinase COQ8B, mitochondrial (Homo sapiens) (UniProt Q96D53); details: Compound concentration 1000.0 nM
Atypical kinase COQ8B, mitochondrial (Homo sapiens), sequence (Q96D53 whole entry): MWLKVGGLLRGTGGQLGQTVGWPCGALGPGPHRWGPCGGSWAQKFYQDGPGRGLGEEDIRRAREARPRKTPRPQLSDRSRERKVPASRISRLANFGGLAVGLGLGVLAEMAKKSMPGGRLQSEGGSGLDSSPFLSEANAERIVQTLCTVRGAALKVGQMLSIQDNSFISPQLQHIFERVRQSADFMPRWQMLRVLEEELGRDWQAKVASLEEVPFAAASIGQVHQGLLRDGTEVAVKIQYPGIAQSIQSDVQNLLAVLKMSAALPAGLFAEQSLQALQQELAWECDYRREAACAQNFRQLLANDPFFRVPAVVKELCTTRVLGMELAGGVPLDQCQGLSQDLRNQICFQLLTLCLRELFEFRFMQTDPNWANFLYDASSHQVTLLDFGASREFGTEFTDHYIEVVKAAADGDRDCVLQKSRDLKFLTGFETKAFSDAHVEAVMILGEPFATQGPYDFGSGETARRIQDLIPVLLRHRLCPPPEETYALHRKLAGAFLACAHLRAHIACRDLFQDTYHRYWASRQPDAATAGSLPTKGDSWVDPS

Mitogen-activated protein kinase 9 (Homo sapiens), sequence (P45984 whole entry, looked up): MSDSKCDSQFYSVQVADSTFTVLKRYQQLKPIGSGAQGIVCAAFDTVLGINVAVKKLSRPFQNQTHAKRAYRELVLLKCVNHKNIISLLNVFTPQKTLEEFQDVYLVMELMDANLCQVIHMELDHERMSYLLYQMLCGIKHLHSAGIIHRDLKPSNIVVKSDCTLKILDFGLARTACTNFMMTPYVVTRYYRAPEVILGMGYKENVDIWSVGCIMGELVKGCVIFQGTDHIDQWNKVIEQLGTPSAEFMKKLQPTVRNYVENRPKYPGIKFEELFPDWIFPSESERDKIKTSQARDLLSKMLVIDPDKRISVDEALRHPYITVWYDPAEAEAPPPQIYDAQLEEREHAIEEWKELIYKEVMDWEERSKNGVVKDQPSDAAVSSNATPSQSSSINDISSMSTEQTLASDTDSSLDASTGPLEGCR

Structure (SMILES) | residual activity [1] [%] | residual activity [2] [%] | residual activity [3] [%] | residual activity [4] [%] | residual activity [5] [%] | residual activity [6] [%] | residual activity [7] [%] | residual activity [8] [%] | residual activity [9] [%] | residual activity [10] [%] | residual activity [11] [%] | residual activity [12] [%] | residual activity [13] [%] | residual activity [14] [%] | residual activity [15] [%] | residual activity [16] [%] | residual activity [17] [%] | residual activity [18] [%] | residual activity [19] [%] | inhibition [20] [%] | also measured
Cn1cncc1[C@](O)(COc1ccc(C#N)cc1-c1ccc(OC(F)(F)F)cc1)c1ccc(C#N)cc1 [ABT-100] | 84 | 89 | 100 | 50 | 73 | 84 | 100 | 100 | 100 | 55 | 100 | 80 | 57 | 90 | 100 | 90 | 92 | 100 | 58 | -0.429 | residual activity [21]: 100%; inhibition [22]: 10.8%; residual activity [23]: 100%; residual activity [24]: 87%; residual activity [25]: 92%; residual activity [26]: 89%; residual activity [27]: 63%; residual activity [28]: 100%; residual activity [29]: 100%; residual activity [30]: 95%; inhibition [31]: 2.72%; inhibition [32]: 42.5%; residual activity [33]: 95%; residual activity [34]: 87%; residual activity [35]: 87%; residual activity [36]: 88%; residual activity [37]: 72%
Cn1cncc1[C@@](O)(COc1ccc(C#N)cc1-c1ccc(OC(F)(F)F)cc1)c1ccc(C#N)cc1 [A-108] | 80 | 92 | 84 | 100 | 86 | 100 | 100 | 100 | 89 | 98 | 100 | 81 | 100 | 100 | 87 | 91 | 88 | 100 | 38 | -4.18 | residual activity [21]: 98%; inhibition [22]: -6.52%; residual activity [23]: 78%; residual activity [24]: 94%; residual activity [25]: 98%; residual activity [26]: 96%; residual activity [27]: 100%; residual activity [28]: 89%; residual activity [29]: 90%; residual activity [30]: 76%; inhibition [31]: 6.36%; inhibition [32]: 92.3%; residual activity [33]: 78%; residual activity [34]: 100%; residual activity [35]: 100%; residual activity [36]: 99%; residual activity [37]: 100%
